# Assay results as given in patent US20090197957A1, “Methods and compositions for the treatment of pain” (Nuon Therapeutics, Inc., priority 2005, published 2009).
# Values joined by “and” are separate entries in the source; they are usually repeats but may differ in a detail not shown here. Equal entries are not always repeated. “Also recorded” adds a separate entry of the source.
# How the values were obtained:
# [1] = test system: astrocytes in the spinal cord (GFAP); assay: GFAP immunohistochemistry of lumbar spinal cord (astrocytic activation); type: in vivo, mice; details: 10 days following onset of arthritis; 3,4-DAA 200 mg/kg/day, dexamethasone 0.5 mg/kg/2 days
# Protocol: FIG. 6 is an image depicting that 3,4-DAA inhibits mechanical and thermal allodynia, and inhibits astrocytic activation in arthritic mice. Mechanical (a) and thermal (b) allodynia, and paw swelling (c) and clinical score (d) were assessed in naïve mice on the day of arthritis onset, and up to 10 days following therapy with 200 mg/kg 3,4-DAA, […] dexamethasone, or vehicle. […] Whilst 3,4-DAA therapy reduced astrocytic activation (bottom right panel) dexamethasone had no action on GFAP levels (bottom left panel). Quantification of the number of hyper-plastic astrocytes in the spinal cord 10 days following onset of arthritis was performed (f).
# Upon completion of treatment, animals were sacrificed by CO2 exposure, and the lumbar spinal cord was excised, fixed (10% formalin), and embedded in paraffin. Immunohistochemistry was then performed to detect astrocytes with a rabbit-anti GFAP (glial fibrillary acidic protein) antibody (Dako Cytomation, Glostrup, Denmark). Antibody detection was performed using an ABC peroxidase method (Vector Laboratories, High Wycombe, Bucks., U.K.) (32).
# Astrocytic activation has been proposed to be important for the generation of both inflammatory and neuropathic hypersensitivity [Bao et al., 2001, Neuroreport 12:3905-3908; Watkins et al., 2001, Trends Neurosci. 24:450-455]. Astrocytic activation in the spinal cord in CIA was therefore assessed. […]
# [2] = test system: anti-type II collagen IgG1 and IgG2a; assay: Serum anti-collagen antibody levels (ELISA); type: in vivo, DBA/1 mice
# Protocol: ELISA plates (Nunc, Uxbridge, UK) were coated with 2 μg/ml of bovine CII dissolved overnight in Tris Buffer (0.05 M Tris, containing 0.2 M NaCl, pH 7.4) blocked with 2% bovine serum albumin (BSA) and then incubated with serial dilutions of test sera. A reference sample was included on each plate. Bound total IgG, IgG1 or IgG2a was detected by incubation with HRP-conjugated sheep anti-mouse IgG, IgG1 or IgG2a, followed by TMB substrate. Optical density was measured at 450 nm.
# [3] = 11,484 patients with restenosis following percutaneous coronary intervention; cited from earlier work
# [4] = test system: acetic acid-induced writhing; assay: Analgesia, acetic acid writhing in mice (Assay #503900, Example 1); type: in vivo, mouse; details: for No. of Writhing Average: group of 5 mice; for % Inhibition: relative to vehicle control; for No. of Writhing Individual: single mice
# Protocol: Tranilast was evaluated for possible analgesic activity in the mouse acetic acid-induced writhing model. Tranilast at 100, 200 and 400 mg/kg was administered orally (PO) 1 hour before intraperitoneal injection of acetic acid (0.5%, 20 ml/kg).
# Tranilast, provided by Angiogen Pharmaceuticals Pty. Ltd., was dissolved in 1% NaHCO3 (heated to 70° C.) and administered orally at doses of 100, 200 and 400 mg/kg at 60 minutes before acetic acid injection. The dosing volume was 10 ml/kg.
# Male CD-1 (Crl.) derived mice weighing 24±2 g were provided by BioLasco Taiwan (under a Charles River Laboratories Technology licensee). Space allocation for 10 animals was 29×18×13 cm. Mice were housed in APEC^R cages. All animals were maintained in a controlled temperature (22° C.-24° C.) and humidity (60%-70%) environment with 12 hours light dark cycles for at least one week in MDS Pharma Services—Taiwan Laboratory prior to use. Free access to standard lab chow for mice (Lab Diet, Rodent Diet, PMI Nutrition International, USA) and tap water was granted. All aspects of this work including housing, experimentation and disposal of animals were performed in general accordance with the Guide for the Care and Use of Laboratory Animals (National Academy Press, Washington, D.C., 1996).
# Test substance was administered PO (400, 200 and 100 mg/kg) to groups of 5 CD-1 (Crl.) derived male or female mice weighing 22±2 g one hour before injection of acetic acid (0.5%, 20 ml/kg IP). Reduction in the number of writhes by 50 percent or more (≧50%) per group of animals observed during the 5 to 10 minute period after acetic acid administration, relative to the vehicle-treated control group, indicates possible analgesic activity.
# Test substance was administered orally to groups of 5 mice 60 minutes before injection of Acetic Acid (0.5%, 20 ml/kg IP). The number of writhing per group of animals observed during the 5 to 10 minutes period after acetic acid challenge was observed. Reduction in the number of writhings by 50 percent or more (≧50%) relative to the vehicle-treated control group indicates possible analgesic activity.
# [5] = test system: IL-10; assay: Serum IL-10 in mice with established CIA (ELISA); type: in vivo; details: treated for 10 days, 100, 200 or 400 mg/kg/day, listed as 3,4-DAA
# Protocol: FIG. 3 is a graphical representation depicting that treatment with 3,4-DAA leads to increased IL-10 levels in vivo. Mice with established CIA were treated with 3,4-DAA or vehicle (n=7) for 10 days (see FIG. 2), then bled. IL-10 in the sera was measured by ELISA.
# [6] = 100 mg/kg PO, 60 minutes before acetic acid
# [7] = 200 mg/kg PO, 60 minutes before acetic acid
# [8] = 400 mg/kg PO, 60 minutes before acetic acid
compound,measurement,setting,value
"COc1ccc(/C=C/C(=O)Nc2ccccc2C(=O)O)cc1OC [Tranilast, 2-[[3-(3,4-dimethoxyphenyl)-1-oxo-2-propenyl]amino]benzoic acid]",number of activated astrocytes in the spinal cord (GFAP staining),[1],significantly reduced
same,anti-collagen IgG1 or IgG2a levels in sera,[2]; 200 mg/kg/day from the day of immunisation,no change
same,anti-type II collagen IgG1 and IgG2a levels in sera,"[2]; established CIA, 100, 200 or 400 mg/kg/day over 10 days",no differences
same,adverse cardiovascular events,[3],no significant increase
same,No. of Writhing Average,[4]; [6],15
same,% Inhibition,[4]; [6],12%
same,No. of Writhing Individual,[4]; [6],19 and 15 and 16 and 17 and 9
same,No. of Writhing Average,[4]; [7],13
same,% Inhibition,[4]; [7],24%
same,No. of Writhing Individual,[4]; [7],10 (2×) and 19 and 9 and 16
same,No. of Writhing Individual,"[4]; 400 mg/kg PO, 60 minutes before acetic acid (0.5%, 20 ml/kg IP), 5 to 10 minute period",3 and 16 and 2 and 10 and 14
same,No. of Writhing Average,[4]; [8],9
same,% Inhibition,[4]; [8],47%
same,inhibition of acetic acid-induced writhing across doses,"[4]; 100, 200 and 400 mg/kg PO",dose-dependent inhibition
same,circulating IL-10 levels (sera),[5],dose-dependent increase; also recorded: increased
